Consider two molecules from article PMC8036603, “Small Molecule Inhibitors of White Spot Syndrome Virus: Promise in Shrimp Seedling Culture” (International Journal of Molecular Sciences, 2021).

“And” between values parts separate entries of the source, which are not always exact repeats. Equal values may be shown once. Bounds are passed on as bounds.

Data set [1] has as its system white spot syndrome virus (WSSV). In words: Anti-WSSV activity in shrimp larvae, co-incubation, copy number of viral genome by RT-qPCR. The settings on record: for copy number of the viral genome in sick or dead shrimp homogenates: 24, 48 and 72 hpi, up to 10 mg/L; for inhibitory efficiency on WSSV replication: six-point dose-response, viral genome copy number in larvae. The class given is in vivo, Litopenaeus vannamei. Background: Real-time PCR tracks product formation cycle by cycle.

Data set [2] has the same test system. In words: Survival of WSSV-infected shrimp larvae on co-incubation with compound. The class given is in vivo, Litopenaeus vannamei. The settings on record: for enhancement of survival rate in WSSV-infected larvae: 72 hpi, 10 mg/L, co-incubation; for decrease of mortality of WSSV-infected larvae after exposure: abstract statement. The protocol:
For in vivo study of co-incubation, C2 and C7 was separately incubated with WSSV and shrimp larvae.
Figure 2 C2 and C7 inhibited WSSV infection in shrimp larvae. (A) Schematic diagram describing the workflow. (B) The survival rate of WSSV-infected shrimp was analyzed in 0.31 to 10 mg/L treatments at 72 hpi. (C) Survivorship curve of WSSV-infected shrimp was analyzed in C2 and C7 up to 10 mg/L treatment. (D) Quantification on copy number of viral genome was tested by exposure to C2 and C7 up to 10 mg/L treatment at 24, 48, and 72 hpi, respectively. The virus-infected shrimps were immersed with the compounds and DMSO at the dose 0.2‰ (v/v). Each value is represented as the mean ± SD normalized to values for no treatment. The p value for each study was determined by Student’s t tests. ** p < 0.01.
[…], shrimp larvae were randomly selected, separated into six-well plates containing ultraviolet light-sterilized aquacultural water, and infected with WSSV (final viral titer of 1.6 × 10^5 copies/µL) in the presence of coumarins for 72 h. Mock negative controls (1% DMSO) were also used. The homogenate of each well containing sick or dead shrimp was subjected to low-speed centrifugation (2000× g). The viral load was quantified by determining the copy number of the viral genome in samples by quantitative reverse transcription polymerase chain reaction (RT-qPCR) assay, as previously described.

A short description of data set [3]: Solubility / precipitation in aquacultural water. The class given is physicochemical. The settings on record: for lowest precipitation concentration / lowest precipitation concentration (bracketed value in LC50 48 h column) / lowest precipitation concentration (bracketed value in LC50 72 h column): test range 0.4~100 mg/L, aquacultural water, LC50 NONE; for solubility in aquacultural water: tested concentration 16 mg/L, 28 °C. The protocol: Prior to evaluation of the anti-WSSV activity of coumarins, the safety doses for larvae needed to be determined. […] In contrast, the electron-withdrawing group was more toxic than the electron-donating group, with the LC50 of A5‒A8 being <5 mg/L at 72 h. […] Based on preliminary analysis of the structure-activity relationship (SAR) of similar spatial structures with different substituents of electron-donating and electron-withdrawing groups to coumarins A1, B1, and C1, we considered that […] of compounds; this provides a basis for further research.
All conventional reagents and solvents are purchased directly from commercial companies and no further purification is required. Organic solvents were purchased from Sinopharm chemical reagent Co., Ltd. and purified by distillation and moisture was excluded from the glass apparatus using CaCl2 drying tubes. Throughout this study, silica gel H (200–300 mesh; Qingdao Marine Chemical Factory, Qingdao, China) was used for the column chromatography. For thin layer chromatographic (TLC) plates, Silica gel (GF254) (Qingdao Marine Chemical Factory, Qingdao, China) were used for thin layer chromatographic (TLC) analysis, and all of the spots and bands were detected by UV irradiation (254, 365 nm). The intermediates and products were characterized by electrospray ionization mass spectrometry (TripleTOF5600þ; AB SCIEX Pte. Ltd., Boston, MA, USA), ^1H NMR and ^13C NMR (Bruker AM500 spectrometer; Bruker Corporation, Berne, Switzerland). The derivatives were dissolved in 100% dimethyl sulfoxide (DMSO; Beyotime Biotechnology, Haimen, China), stored at 4 °C prior to antiviral evaluation, and used within 6 months. For solubility, the stock solutions, at a concentration of 50 mg/mL, were sonicated for approximately 10 min to ensure that the derivatives were fully dissolved and mixed.

In data set [4] the test system is white spot syndrome virus (WSSV). The data set is described as follows: Stability assay in aquacultural water (residual anti-WSSV activity). The settings on record: 28 °C, nonlinear regression best-fit. Details: species or system Litopenaeus vannamei. The protocol: Aquaculture water was obtained from culture ponds of the Zhejiang Mariculture Research Institute Qingjiang Station. C2/C7, with a final concentration of 10 mg/L, was added to aquacultural water samples in the presence of natural light for up to 4 days, at 28 °C, and finally preincubated with WSSV (final viral titer of 1.6 × 10^5 copies/µL) to infect shrimp larvae, followed by quantification of the copy number of the viral genome at 72 hpi, and the survival rate of the shrimp was evaluated.

The test system is the same in data set [5]. The data set is described as follows: Preincubation of WSSV with compound before infection of larvae. The format is in vivo, Litopenaeus vannamei. The settings on record: virus pre-incubated with compound 1–4 h; for increase of survival rate: 10 mg/L. The protocol: For preincubation with immersion, WSSV was preincubated with C2/C7 to a final viral titer of 1.6 × 10^5 copies/µL and up to 10 mg/L coumarin compound or vehicle control in the challenge wells. After 1, 2, and 4 h of incubation, shrimp larvae were added to the challenge well until 72-h post-infection. The surviving shrimp were humanely euthanized with tricaine methane sulfonate (MS-222) at a final concentration of 150 mg/L, followed by quantification of the copy number of the viral genome.

Data set [6] has the same test system. The data set is described as follows: Horizontal transmission of WSSV to naive recipient larvae. The format is in vivo, Litopenaeus vannamei. The settings on record: 10 mg/L, each time point. As for the experimental part:
Shrimp larvae were infected with 1.6 × 10^5 copies/µL WSSV or aquacultural water only. At 24 hpi, a total of the 12 donor shrimps were placed into each challenge beaker (100 mL of water and a continuous air supply), and C2 (10 mg/L final concentration) or DMSO (0.2‰ final concentration) was added to each challenge beaker. Every 24 h, five donor and fifteen recipient shrimp were netted into a new challenge beaker with fresh water and a fresh dose of C2/C7 (10 mg/L) or DMSO (0.2‰). After 72 h of cohabitation, the surviving recipient shrimps were euthanized with MS-222 and frozen at −80 °C. In order to distinguish the donor and recipient samples in this test, we chose the larger shrimp as the recipients (total length of 1.1 ± 0.2 cm, body weight of 6.9 ± 0.5 mg, mean values ± SD) and placed a sieve in the challenge beaker to separate the donor and recipient shrimps.

[7] abbreviates: WSSV-infected larvae, copy number of viral genome, 72 h, 95% CI in brackets.

For orientation: half-life means the time in which the quantity being followed falls by half. In the case of `Cc1ccc(C2C(C#N)=C(N)Oc3c2c(=O)oc2ccccc32)cc1` (stereo not shown) [C2, 2-amino-5-oxo-4-(p-tolyl)-4H,5H-pyrano[3,2-c]chromene-3-carbonitrile], in data set [1], the “copy number of the viral genome in sick or dead shrimp homogenates” value was “down-regulated” and the “inhibitory efficiency on WSSV replication” value is given as “exceeded 90%”. Moreover, the “EC50 (mg/L; 95% CI), median effective concentration” value in data set [1] (setting [7]) is listed as 05.993 (5.327~6.851) mg/L. Also, the EC50 in data set [1] (Whispovirus xiabaidian, 72 h, read-out: EC50 (mg/L; 95% CI), median effective concentration, WSSV-infected larvae, copy number of viral genome, 72 h, 95% CI in brackets) is below 10 mg/L. Also, in data set [2], the “enhancement of survival rate in WSSV-infected larvae” value is listed as “more than 65%” and the “decrease of mortality of WSSV-infected larvae after exposure” value is recorded as “more than 60%”. Besides, in data set [3], the “lowest precipitation concentration” value is “NONE (16) mg/L”, the “lowest precipitation concentration (bracketed value in LC50 48 h column)” value is on record as “NONE (16) mg/L”, the “lowest precipitation concentration (bracketed value in LC50 72 h column)” value was “NONE (16) mg/L” and the “solubility in aquacultural water” value is listed as “insoluble”. Also, in data set [4] (buffer, read-out: calculated inhibitory half-life in water samples (converted)), the half-life at 10 mg/L was 2.3 days. Also, in data set [5], the “effect on WSSV infection (viral genome copy number)” value is reported as “suppressed WSSV infection” and the “increase of survival rate” value was “up to 40%”. Besides, the “WSSV replication in naïve recipient larvae” value in data set [6] is reported as “significantly downregulated”.

Regarding “2-amino-4-(4-chlorophenyl)-5-oxo-4H,5H-pyrano[3,2-c]chromene-3-carbonitrile [C7]”, in data set [1], the “copy number of the viral genome in sick or dead shrimp homogenates” value is recorded as “down-regulated” and the “inhibitory efficiency on WSSV replication” value is “exceeded 90%”. For the same molecule, in data set [1] (setting [7]), the “EC50 (mg/L; 95% CI), median effective concentration” value was < 10 mg/L and 05.727 (5.069~6.577) mg/L. For the same molecule, the “MAR (%), maximum antiviral response” value in data set [1] (WSSV-infected larvae, viral genome copy number normalized to no treatment, low value = strong inhibition, mean ± SD) was 03.154 ± 1.157%. In data set [2], the “enhancement of survival rate in WSSV-infected larvae” value is given as “more than 65%” and the “decrease of mortality of WSSV-infected larvae after exposure” value is reported as “more than 60%”. Besides, in data set [3], the “lowest precipitation concentration” value was “NONE (16) mg/L”, the “lowest precipitation concentration (bracketed value in LC50 48 h column)” value was “NONE (16) mg/L”, the “lowest precipitation concentration (bracketed value in LC50 72 h column)” value is “NONE (16) mg/L” and the “solubility in aquacultural water” value is “insoluble”. The “calculated inhibitory half-life in water samples” value in data set [4] (10 mg/L) is 2.4 days. Further, in data set [5], the “effect on WSSV infection (viral genome copy number)” value is “suppressed WSSV infection” and the “increase of survival rate” value was “up to 40%”. Besides, in data set [6], the “WSSV replication in naïve recipient larvae” value is on record as “significantly downregulated”.
